From patent publication US7772271B2 (priority 2004, dated 2010)

| melting point | SMILES |
| --- | --- |
| 210 to 212 °C | CCCS(=O)(=O)Nc1ccc(-c2c(C#N)c3ccc(-c4cc(C)ccn4)cc3n2C2CCC2)cc1 [Compound 2978] |
| 95.9 to 99 °C | CCn1c(-c2ccc(NC(=O)C3CC3)cc2)c(C#N)c2ccc(OCCN3CCCN(C)CC3)cc21 [Compound 1395] |
| 232 to 234 °C | CC(C)n1c(-c2ccc(N(S(C)(=O)=O)S(C)(=O)=O)cc2)c(C#N)c2ccc(OC(F)F)cc21 [Compound 1342] |
| 199 to 201 °C | Cc1csc(Nc2ccc(-c3c(C#N)c4ccc(OCCF)cc4n3C3CCC3)cc2)n1 [Compound 3205] |
| 202 to 205 °C | CCN(C)C(=O)c1ccc2c(C#N)c(-c3ccc(NS(=O)(=O)C4CC4)cc3)n(C3CCC3)c2c1 [Compound 2296] |
| 183 to 184 °C | CC(C)NC(=O)Nc1ccc(-c2c(C#N)c3ccc(OC4CCOC4)cc3n2C2CCC2)cc1 (stereo not shown) [Compound 1462] |
| 195 to 200 °C | CCOc1ccc2c(C#N)c(-c3ccc(NC(=O)NCC(C)O)cc3)n(C3CCC3)c2c1 (stereo not shown) [Compound 1391] |
| 183 to 185 °C | CC(C)NS(=O)(=O)Nc1ccc(-c2c(C#N)c3ccc(OC4CCOCC4)cc3n2C2CCC2)cc1 [Compound 2786] |
| 65 to 72 °C | CCOc1ccc2c(C#N)c(-c3ccc(NC(=O)OCCOCCOC)cc3)n(C3CCC3)c2c1 [compound 1424, [4-(3-cyano-1-cyclobutyl-6-ethoxy-1H-indol-2-yl)-phenyl]-carbamic acid 2-(2-methoxyethoxy)-ethyl ester] |
| 227 to 229 °C | C[C@@H](OC(=O)Nc1ccc(-c2c(C#N)c3ccc(Oc4ncccn4)cc3n2C2CCC2)cn1)C(F)(F)F [Compound 3322] |
| 134.2 to 139.5 °C | CCN(CC)C(=O)Oc1ccc(-c2c(C#N)c3ccc(OC)cc3n2CC)cc1 [Compound 1348] |
| 218 to 220 °C | CCCS(=O)(=O)Nc1ccc(-c2c(C#N)c3ccc(Oc4ncccc4C#N)cc3n2CC2CC2)c(Cl)c1 [Compound 3306] |
| 140 to 145 °C | CC(C)NC(=O)Nc1ccc(-c2c(C#N)c3cc(Oc4ncccn4)ccc3n2C2CCC2)cc1 [Compound 2851] |
| 236 to 238 °C | CCn1c(-c2ccc(NS(=O)(=O)CC)cc2)c(C#N)c2ccc(C(=O)N3CCN(c4ccccc4)CC3)cc21 [Compound 1362] |
| 219 to 224 °C | N#Cc1c(-c2ccc(N3CCCS3(=O)=O)cc2)n(C2CC2)c2cc(OC3CCOCC3)ccc12 [Compound 2941] |
| 135 to 140 °C | CC(OC(=O)Nc1ccc(-c2c(C#N)c3ccc(OCCS(C)(=O)=O)cc3n2C2CCC2)cc1)C1CC1 (stereo not shown) [compound 2695, {4-[3-Cyano-1-cyclobutyl-6-(2-methanesulfonyl-ethoxy)-1H-indol-2-yl]-phenyl}-carbamic acid 1-cyclopropyl-ethyl ester] |
| 130 °C (dec.) | C[C@H](NS(=O)(=O)Nc1ccc(-c2c(C#N)c3ccc(Oc4ncccc4C#N)cc3n2C2CCC2)cc1)C1CC1 [Compound 3275] |
| 116 to 117 °C | COCCOc1ccc2c(C#N)c(-c3ccc(NC(=O)O[C@H](C)C4CC4)cc3)n(C3CCC3)c2c1 [Compound 2702] |
| 98 to 99 °C | O=S1(=O)CCCN1c1ccc(-c2cc3ccc(Oc4ncccn4)cc3n2CC2CC2)cc1 [Compound 3326] |
| 161 to 162 °C | C[C@@H](OC(=O)Nc1ccc(-c2c(C#N)c3ccc(OC(F)F)cc3n2C2CCC2)cc1)C(F)(F)F [Compound 2880] |
| 208 to 210 °C | CC(C)n1c(-c2ccc(NC(=O)O[C@H](C)C3CC3)cc2)c(C#N)c2ccc(OC3CCOCC3)cc21 [Compound 2741] |

| melting point | SMILES |
| --- | --- |
| 191 to 193 °C | CCCS(=O)(=O)Nc1ccc(-c2c(C#N)c3ccc(Oc4nccnc4C)cc3n2C2CC2)cc1 [Compound 2938] |
| 203 to 212 °C | CCn1ccnc1CCOc1ccc2c(C#N)c(-c3ccc(NC(=O)OC(C)C)cc3)n(C3CCC3)c2c1 [Compound 2842] |
| 199 to 201 °C | N#Cc1c(-c2ccc(N)cc2)n(C2CC2)c2cc(OC3CCOC3)ccc12 (stereo not shown) [Compound 1443] |
| 145 to 146 °C | CC(C)OC(=O)Nc1ccc(-c2c(C#N)c3ccc(OCCSc4ccccn4)cc3n2C2CCC2)cc1 [Compound 2697] |
| 138 to 142 °C | CCCS(=O)(=O)Nc1ccc(-c2c(C#N)c3ccc(Oc4ncccc4C(=O)OCC)cc3n2C2CCC2)cc1 [Compound 3308] |
| 175 to 177 °C | CC(C)CS(=O)(=O)Nc1ccc(-c2c(C#N)c3ccc(OC4COCOC4)cc3n2C2CCC2)cc1 [Compound 2917] |
| 104 to 107 °C | Cc1cc(C)cc(CNc2ccc(-c3c(C#N)c4ccc(OC5CCOCC5)cc4n3C3CCC3)cc2)c1 [Compound 3122] |
| 180 to 183 °C | CCOc1ccc2c(C#N)c(-c3ccc(S(=O)(=O)N4CCC[C@H]4CO)cc3)n(C3CCC3)c2c1 [Compound 2689] |
| 248 to 250 °C | CC1(S(=O)(=O)Nc2ccc(-c3c(C#N)c4ccc(C(=O)N5CCOCC5)cc4n3C3CCC3)cc2)CC1 [Compound 2964] |
| 206 to 208 °C | N#Cc1c(-c2ccc(NS(=O)(=O)NCC3CC3)cc2)n(C2CCC2)c2cc(Oc3nccnc3Cl)ccc12 [Compound 2948] |
| 162 to 165 °C | COCCOc1ccc2c(C#N)c(-c3ccc(NC(=O)OC(C)C(F)(F)F)cc3)n(C(C)C)c2c1 (stereo not shown) [Compound 2686] |
| 107 to 109 °C | CCn1c(-c2ccc(NC(=O)OCc3ccccc3)cc2)c(C#N)c2ccc(OCCOC)cc21 [Compound 1372] |
| 279 to 282 °C | CCCS(=O)(=O)Nc1ccc(-c2c(C#N)c3ccc(N4CCCC4=O)cc3n2C2CCC2)cc1 [Compound 3198] |
| 168 to 171 °C | CCn1c(-c2ccc(NC(=O)NCCc3ccccc3)cc2)c(C#N)c2ccc(OCCOC)cc21 [Compound 1403] |
| 205 to 208 °C | Cc1cccc(Oc2ccc3c(c2)c(C#N)c(-c2ccc(NC(=O)O[C@H](C)C4CC4)cc2)n3C2CCC2)n1 [Compound 3257] |
| 221 to 225 °C | COc1ccnc(Oc2ccc3c(C#N)c(-c4ccc(NC(=O)NC(C)C)cc4)n(C4CCC4)c3c2)n1 [Compound 2750] |
| 112 to 119 °C | CCOc1ccc2c([N+](=O)[O-])c(-c3ccc(NC(=O)OC(C)C)cc3)n(CC3CC3)c2c1[N+](=O)[O-] [Compound 3093] |
| 177 to 178 °C | Cc1cc(-c2c(C#N)c3ccc(Oc4nccnc4C#N)cc3n2C2CCC2)ccc1NS(=O)(=O)CC(C)C [Compound 3289] |
| 148 to 151 °C | C[C@@H](OC(=O)Nc1ccc(-c2c(C#N)c3ccc(C(=O)N4CCSCC4)cc3n2C2CCC2)cc1)C1CC1 [Compound 2793] |
| 218 to 224 °C | C[C@@H](OC(=O)Nc1ccc(-c2c(C#N)c3ccc(OCS(C)(=O)=O)cc3n2C2CCCC2)cc1)C1CC1 [Compound 3068] |
| 156 to 157 °C | COCCOc1ccc2c(C#N)c(-c3ccc(C(=O)N[C@H](C)c4ccc(OC)cc4)cc3)n(C3CCC3)c2c1 [Compound 3133] |

| melting point | SMILES |
| --- | --- |
| 174 to 177 °C | CCCS(=O)(=O)Nc1ccc(-c2c(C#N)c3ccc(Oc4nccc(C(F)(F)F)n4)cc3n2CC2CC2)c(C)c1 [Compound 2981] |
| 161 to 165 °C | CC(C)OC(=O)Nc1ccc(-c2c(C#N)c3ccc(OCCN4CCC(O)C4)cc3n2C2CCC2)cc1 (stereo not shown) [Compound 1435] |
| 240 to 241 °C | CC(C)(C)c1csc(Nc2ccc(-c3c(C#N)c4ccc(Oc5ncccn5)cc4n3C3CCC3)cc2)n1 [Compound 3179] |
| 181 to 212 °C | N#Cc1c(-c2ccc(NC(=O)OC3CCS(=O)(=O)CC3)cc2)n(C2CCC2)c2cc(Oc3ncccn3)ccc12 [Compound 3267] |
| 150 to 155 °C | COCCOc1ccc2c(C#N)c(-c3ccc(NC(=O)OC(c4ccccc4)C(F)(F)F)cc3)n(C(C)C)c2c1 (stereo not shown) [Compound 2688] |
| 169 to 171 °C | CC(C)S(=O)(=O)Nc1ccc(-c2c(C#N)c3ccc(C(=O)N4CCOCC4)cc3n2C2CCC2)cc1 [Compound 2899] |
| 196 to 198 °C | CC(C)S(=O)(=O)Nc1ccc(-c2c(C#N)c3ccc(OC4COCOC4)cc3n2C2CCC2)cc1 [Compound 2920] |
| 167 to 170 °C | N#Cc1c(-c2ccc(Oc3cnccn3)cc2)n(C2CCC2)c2cc(OC3CCOCC3)ccc12 [Compound 3168] |
| 222 to 224 °C | N#Cc1c(-c2ccc(NS(=O)(=O)C3CC3)cc2)n(C2CCC2)c2cc(N3CCOCC3)ccc12 [Compound 2802] |
| 183 to 184 °C | CC(OC(=O)Nc1ccc(-c2c(C#N)c3ccc(OC4CCOC4)cc3n2C2CCC2)cc1)C1CC1 (stereo not shown) [Compound 1453] |
| 125 to 128 °C | N#Cc1c(-c2ccc(NS(=O)(=O)C3CC3)cc2)n(C2CCC2)c2cc(C(=O)N3CCOCC3)ccc12 [Compound 2825] |
| 168 to 169 °C | CC(OC(=O)Nc1ccc(-c2c(C#N)c3ccc(OCCCCn4cncn4)cc3n2C2CCC2)cc1)C(F)(F)F (stereo not shown) [Compound 2643] |
| 215 to 217 °C | CCCS(=O)(=O)Nc1ccc(-c2c(C#N)c3ccc(Oc4nccnc4C#N)cc3n2C2CCC2)cc1C [Compound 3288] |
| 189 to 192 °C | CC(NC(=O)Nc1ccc(-c2c(C#N)c3ccc(OC4CCOCC4)cc3n2C2CC2)cc1)c1ccc(F)cc1 (stereo not shown) [Compound 2653] |
| 148 to 152 °C | CC(=O)c1cccc(Nc2ccc(-c3c(C#N)c4ccc(OC5CCOCC5)cc4n3C3CCC3)cc2)c1 [Compound 3162] |
| 209 to 210 °C | CCCS(=O)(=O)Nc1ccc(-c2c(C#N)c3ccc(Oc4cccnc4Cl)cc3n2C2CC2)cc1 [Compound 2936] |
| 225 to 230 °C | C[C@@H](OC(=O)Nc1ccc(-c2c(C#N)c3ccc(OCCn4ccnc4)cc3n2C2CC2)cc1)c1ccc(F)cc1 [Compound 2828] |
| 223 to 225 °C | Cc1csc(Nc2ccc(-c3c(C#N)c4ccc(Oc5ncccn5)cc4n3C3CCC3)cc2)n1 [compound 3180, 1-cyclobutyl-2-[4-(4-methyl-thiazol-2-ylamino)-phenyl]-6-(pyrimidin-2-yloxy)-1H-indole-3-carbonitrile] |
| 180 to 183 °C | CCOc1ccc2c(C#N)c(-c3ccc(NC(=O)O[C@@H](C)c4ccncc4)cc3)n(C3CCC3)c2c1 [Compound 2706] |
